Patent US20060002913A1, “Use of histamine and related compounds to treat disorders affecting muscle function” (priority 2004, published 2006)

Key:
[1] = target: membrane bound non-mitochondrial oxidase of stimulated phagocytes (Homo sapiens, UniProt P04839); details: substrate of the oxidase that converts oxygen to superoxide; cited from earlier work
[2] = system: patient suffering from Acute Myelogenous Leukemia (AML) and fibromyalgia; details: given with IL-2, subcutaneously two times per day, 0.5 mg per injection, 21-day cycles repeated for 18 months with 21-day intermissions
Protocol: A patient, suffering from Acute Myelogenous Leukemia (AML) and fibromyalgia received treatment with histamine dihydrochloride and IL-2. Histamine dihydrochloride was administered subcutaneously two times per day at a dosage of 0.5 mg per injection for a period of 21 consecutive days.
The above 21-day cycle was repeated for 18 months with 21-day intermissions between cycles.

[3] = system: patient with amyotrophic lateral sclerosis; details: orally 1 mg/day for six months
Protocol: A patient with amyotrophic lateral sclerosis received treatment with histamine dihydrochloride. Histamine dihydrochloride was administered orally at a dosage of 1 mg/day for a period of six months.

[4] = system: subjects suffering from muscle pain exacerbated by ROS and/or inflammatory cytokines; test: Inhibition of muscle pain, self-rated pain scale 1 to 10 (Example 3); format: in vivo, human; details: effective dose, after several weeks of treatment; groups of 10 subjects; vs placebo
Protocol: Subjects suffering from muscle pain exacerbated by ROS and/or inflammatory cytokines are identified. The subjects are asked to rate their pain on a scale of 1 to 10, with 1 indicating no pain or mild pain and 10 indicating severe pain. The subjects are then separated into 11 groups of 10 subjects each. […] Subjects in Group 11 are administered a placebo. After several weeks of treatment, subjects are again asked to rate their pain using the scale above.

[5] = system: individuals suffering from multiple sclerosis; details: orally 10, 30, 50, 100, 200 and 1,000 mg; vs placebo
Protocol: Individuals suffering from multiple sclerosis are identified. The individuals are asked to fill out a questionnaire regarding commonly experienced symptoms experienced by MS patients as well as the rate and severity of each symptom. The individuals are then separated into 7 groups of 20 individuals. […] Individuals in Group 7 are administered a placebo. Following the course of treatment, the individuals are again asked to fill out the same questionnaire.

| Compound | Km [1] | muscle pain, self-rated on a scale of 1 to 10 [4] | also measured |
| --- | --- | --- | --- |
| NC(=O)C1=CN([C@@H]2O[C@H](COP(=O)(O)OP(=O)(O)OC[C@H]3O[C@@H](n4cnc5c(N)ncnc54)[C@H](O)[C@@H]3O)[C@@H](O)[C@H]2O)C=CC1 [NADH] | 450 µM | – | – |
| Cl.Cl.NCCc1c[nH]cn1 [histamine dihydrochloride] | – | reduction in muscle pain | patient's symptoms (fibromyalgia muscle pain) [2]: symptoms disappeared while on treatment and returned during intermissions; progression of ALS [3]: arrested |
| NCCc1c[nH]cn1 [histamine] | – | reduction in muscle pain | rate and severity of symptoms associated with muscle damage (questionnaire) [5]: decrease in both the rate and severity of symptoms associated with muscle damage |
| NC(=O)C1=CN([C@@H]2O[C@H](COP(=O)(O)OP(=O)(O)OC[C@H]3O[C@@H](n4cnc5c(N)ncnc54)[C@H](OP(=O)(O)O)[C@@H]3O)[C@@H](O)[C@H]2O)C=CC1 [NADPH] | 45 µM | – | – |
| NCCc1c[nH]cn1.O=P(O)(O)O [histamine phosphate] | – | reduction in muscle pain | – |
| NCCc1c[nH]c2ccc(O)cc12 [serotonin] | – | reduction in muscle pain | – |
